Assay results taken from patent US4952598A, “3-phenyl indolinone derivatives, processes for their preparation, medicaments containing them, and their use” (Hoechst Aktiengesellschaft, priority 1985, dated 1990).
Where a name gives a salt, the structure may show the parent alone.

Each compound was assayed against calcium channels (assay: 3H-nitrendipine binding (nitrendipine displacement) test). Conditions: 3H-nitrendipine 0.1 nM, rat brain cortex membranes, pH 7.4, 25° C., 60 min.
Procedure: Their calcium-antagonistic activity can be shown in the biochemical test model of displacement of tritium-labeled nitrendipine.
This entails membrane preparations which contain isolated calcium channels being loaded with labeled substance.
After incubation with the test substance, the radioactivity which has been released into the supernatant solution is determined. […] The compounds of the formula I are likewise very active in other test models with which a calcium-antagonistic action can be detected, for example the coronary blood flow in the isolated guinea pig heart, or the action potential of the isolated guinea pig papillary muscle.
The test of the activity of substances in the ^3 H-nitrendipine binding test was carried out in a membrane preparation obtained from the cortex of the rat brain and washed several times, the method used essentially being that described by R.J. Gould et al. (Proc. Natl. Acad. Sci. USA 79, 3656 [1982]). The membrane suspension was diluted 1:1500 with TRIS buffer pH 7.4 (50 mM TRIS.HCl, 150 mM NaCl, 1.0 mM CaCl2 and 0.001% by weight, based on TRIS.HCl, NaCl and CaCl2 in solution, of a neutral surface-active substance such as, for example, Genapol^(R)) was incubated in 5 ml portions with ^3 H-nitrendipine (0.1 nM in the test, specific activity 81.3 Ci/mmol) in a shaking water bath at 25° C. for 60 min. The membrane fractions were removed by vacuum filtration through Whatman GF/F glass fiber filters, and the radioactivity was measured in a liquid scintillation counter. The unspecific ^3 H-nitrendipine binding was determined in the presence of 1 μM nifedipine.

Compound | IC50
COc1ccc(CCN(C)CCCCOc2ccccc2C2(C(C)C)C(=O)N(C)c3ccccc32)cc1OC (stereo not shown) [Example 3, 3-[2-(4-(N-(2-(3,4-dimethoxyphenyl)ethyl)-N-methylamino)butoxy)-phenyl]-3-isopropyl-1-methylindolin-2-one hydrochloride] | 22 nM
COc1cc(CN2CCN(CCCCOc3ccccc3C3(C(C)C)C(=O)N(C)c4ccccc43)CC2)cc(OC)c1OC (stereo not shown) [Example 6, 3-Isopropyl-1-methyl-3-[2-(4-(4-(3,4,5-trimethoxybenzyl)-1-piperazinyl)butoxy)phenyl)indolin-2-one dichydrochloride] | 44 nM
COc1ccc(CCN(C)CCCCOc2ccccc2C2(Cc3ccccc3)C(=O)N(C)c3ccccc32)cc1OC (stereo not shown) [Example 1, 3-Benzyl-3-[2-(4-(N-(2-(3,4-dimethoxyphenyl)ethyl)-N-methylamino)butoxy)phenyl]-1-methylindolin-2-one hydrochloride] | 8000 nM
CC(C)C1(c2ccccc2OCCCCN2CCN(CCCC(c3ccc(F)cc3)c3ccc(F)cc3)CC2)C(=O)N(C)c2ccccc21 (stereo not shown) [Example 5, 3-[2-(4-(4-(4-bis(4-fluorophenyl)butyl)-1-piperazinyl)butoxy)phenyl]-3-isopropyl-1-methylindolin-2-one dihydrochloride] | 13 nM
